Reference: US20250188110A1, “SPECIFIC SMALL MOLECULE INHIBITORS THAT BLOCK KMT9 METHYLTRANSFERASE ACTIVITY AND FUNCTION” (ALBERT-LUDWIGS-UNIVERSITÄT FREIBURG, priority 2021, published 2025)

Assays:
KMT9 [1] = biological target: T1, KMT9 (Homo sapiens, UniProt Q9Y5N5); assay: KMT9 thermal shift assay (SyproOrange); assay type: binding; settings: ΔTm; 500 µM compound, 2 μM KMT9, 5X SO; read-out: Thermal shift
T1 sequence (Q9Y5N5 1-214): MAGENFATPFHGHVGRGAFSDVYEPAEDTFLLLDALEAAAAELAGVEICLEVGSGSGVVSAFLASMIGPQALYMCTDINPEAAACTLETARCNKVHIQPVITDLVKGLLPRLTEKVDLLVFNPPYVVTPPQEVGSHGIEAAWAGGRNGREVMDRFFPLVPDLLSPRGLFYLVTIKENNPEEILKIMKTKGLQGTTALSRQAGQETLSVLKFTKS
T1 sequence (Q9UI30 1-120 isoform Q9UI30-2 partner): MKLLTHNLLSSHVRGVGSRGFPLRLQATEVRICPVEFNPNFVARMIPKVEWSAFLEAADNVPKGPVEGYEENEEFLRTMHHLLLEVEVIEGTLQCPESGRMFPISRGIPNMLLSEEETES
Protocol: The assay was carried out in 96-well Hard-Shell PCR plates (Bio-Rad Laboratories Inc.). Assay buffer consisted of 50 mM BTP, 1 mM MgCl2 and 1 mM DTT at a pH of 8.5 (adjusted using 1 M HCl and 1 M NaOH). 20X inhibitor stock (in DMSO), 2X enzyme stock and 4X SyproOrange (SO) stock (both in assay buffer) were prepared. 1 μL of 20X compound, 4 μL of assay buffer, 10 μL of 2X KMT9 and 5 μL of 4X SO were pipetted. For the no-compound control, 20X inhibitor stock was replaced by DMSO. The final volume was 20 μL. The plate was spun down at 700 rpm for 1 min using a Hettich UNIVERSAL 320 centrifuge and incubated at 25° C., shaking at 600 rpm. After incubation, the plate was spun down for 1 min at 700 rpm and measurement was conducted using a CFX96 Touch Real-Time PCR Detection System (Bio-Rad Laboratories Inc.). The plate was equilibrated at 20° C. for 4 min and then heated stepwise at a rate of 1° C. per 15 s until 95° C. After every step, fluorescence was measured in FRET mode. Calculation of melting points was conducted by a Boltzman sigmoidal model using GraphPad Prism 7.0.
For the results of the thermal shift assay shown as “Thermal shift” in Table 1, “++++” represents a ΔTm of greater 20 K, “+++” represents a ΔTm of greater than 15 K and less than or equal to 20 K (15 K<ΔTm≤20 K); “++” represents a ΔTm of greater than 10 K and less than or equal to 15 K (10 K<ΔTm ≤ 15 K); “+” represents a ΔTm of equal to or less than 10 K (ΔTm≤10 K).

KMT9 [2] = biological target: T1, KMT9; assay: KMT9 methyltransferase inhibition assay, 3H-SAM scintillation (entries 1-154); assay type: biochemical; settings: entries 1-154: 3H-SAM assay, 25 nM KMT9, 5 μM ETF1
Protocol: The assay was carried out in 0.5 mL Eppendorf tubes in duplicates. Assay buffer consisted of 50 mM BTP, 1 mM MgCl2, 1 mM DTT and 0.01% Triton-X^100 at a pH of 8.5 (adjusted using 1 M HCl and 1 M NaOH). 20X inhibitor stock (in DMSO), 2X enzyme stock and 4X substrate mix (both in assay buffer) were prepared. The substrate mix consisted of Tritium-labelled S-adenosylmethionine (3H-SAM), S-adenosylmethionine (SAM) and eukaryotic peptide chain release factor subunit1 (Homo sapiens, residues 140-275)(ETF1). Final assay concentrations were set to 25 nM KMT9, 0.3 μM 3H-SAM, 0.7 µM SAM and 5 μM ETF1. […] 5 μL of 4x substrate mix was added to initiate the reaction. The final reaction volume was 20 μL. For the positive control, the compound of formula (I) was replaced by DMSO; for the negative control, the compound of formula (I) was replaced by DMSO and KMT9 was replaced by assay buffer. The reaction mix was incubated in an Eppendorf thermomixer comfort at 30° C. for 2 h, shaking at 300 rpm. The reaction was quenched using 5 μL 50% trichloroacetic acid (TCA) and incubated at 25° C. for 5 minutes. 22 μL of the mixture was transferred into 96-well MultiScreen@HTS FB filter plates (Merck KGaA, Darmstadt, Germany) and washed four times with 10% TCA and two times with 100% ethanol. The plate was dried overnight, the filters were transferred into individual 6 mL Pony Vials (Perkin Elmer Inc, Waltham, MA, USA) and incubated in 3 mL of Ultima Gold scintillation cocktail (Perkin Elmer Inc, Waltham, MA, USA) for 30 minutes. The scintillation signal was measured for 3x 1 min using TriCarb 2910 TR (Perkin Elmer) scintillation counter in 3H CPM mode (LL: 0, UL: 18.6). Inhibition was calculated using the following formula: […]
With xc: signal of compound, Xpos: mean signal of positive control, Xneg: mean signal of negative control. Data fitting was carried out by GraphPad 7.0 using nonlinear fit ([Inhibitor]vs. response-variable slope (four parameters)).
For the results of the methyltransferase inhibition assay shown as “Inhibition” in Table 1, “I” represents an IC50 less than 0.1 μM, “II” represents an IC50 equal or higher than 0.1 μM and less than 1 μM, “III” represents an IC50 equal or higher than 1 µM and less than 10 µM and “IV” represents an IC50 equal or higher than 10 µM

KMT9 [3] = biological target: T1, KMT9; assay: Microscale thermophoresis (MST) KMT9 binding; settings: microscale thermophoresis, His-tag labelled KMT9 (20 nM); read-out: MST
Protocol: To determine the binding affinity of the compounds according to the present invention and KMT9, microscale thermophoresis (MST) analysis was performed with a NanoTemper Monolith NT.115 instrument (NanoTemper Technologies GmbH). KMT9 was labelled with a RED-Tris-NTA labelling kit (NanoTemper Technologies GmbH) based on the manufacturer's instructions. Buffer including 25 mM HEPES (pH 7.5), 100 mM NaCl, 1 mM DTT and 0.05% Tween was used for the reaction buffer. Varying concentrations of the tested compounds of formula (I) as indicated in Table 1 were titrated against His-tag labelled KMT9 proteins (20 nM). Samples were loaded into standard Capillaries (NanoTemper Technologies GmbH) and MST measurements were performed using 40% MST power and 100% LED power. For each set of binding experiments, MST measurement was carried out with Binding Affinity module in MO.Control program under Nano-RED Excitation. Datasets were processed with the MO.Affinity Analysis software (NanoTemper Technologies GmbH).
For the results of the microscale thermophoresis (MST) assay shown as “MST” in Table 1, “A” represents a Kd of equal to or less than 10 nM (Kd≤10 nM); “B” represents a Kd of greater than 10 nM and equal to or less than 100 nM (10 nM<Kd<100 nM); “C” represents a Kd of greater than 100 nM and equal to or less than 1000 nM (100 nM<Kd ≤ 1000 nM); “D” represents a Kd of greater than 1000 nM (1000 nM<Kd).

ΔTm at 500 µM (KMT9 [1]) [°C] | IC50 (KMT9 [2]) [nM] | Kd (KMT9 [3]) [nM] | Structure (SMILES)
≤ 10 | > 10000 | > 1000 | CNc1ncnc2c1ccn2[C@@H]1C[C@H](COCCCNCCc2cccc(Oc3ccccc3)c2)[C@@H](O)[C@H]1O [421 (292), (1R,2S,3R,5R)-3-(4-(Methylamino)-7H-pyrrolo[2,3-d]pyrimidin-7-yl)-5-((3-((3-phenoxyphenethyl)amino)propoxy)methyl) cyclopentane-1,2-diol]
10 to 15 | 1000 to 10000 | > 1000 | CNc1ncnc2c1ccn2[C@@H]1C[C@H](CNCCCNCCc2ccc(Oc3ccc(Cl)cc3)c(F)c2)[C@@H](O)[C@H]1O [370 (274), (1S,2R,3R,5R)-3-(((3-((4-(4-chlorophenoxy)-3-fluorophenethyl)amino)propyl)amino)methyl)-5-(4-(methylamino)-7H-pyrrolo[2,3-a]pyrimidin-7-yl) cyclopentane-1,2-diol]
≤ 10 | > 10000 | > 1000 | CNc1ncnc2c1ccn2[C@@H]1C[C@H](CN2CCC[C@]23CCCNC3)[C@@H](O)[C@H]1O (single isomer, unassigned) [449 (321)]
15 to 20 | 1000 to 10000 | 10 to 100 | Nc1ncnc2c1c(-c1nccs1)cn2[C@@H]1C[C@H](C2CCNCC2)[C@@H](O)[C@H]1O [487 (360)]
≤ 10 | > 10000 | > 1000 | CNc1ncnc2c1ccn2[C@@H]1C[C@H](CN2CCC[C@@]23CCCNC3)[C@@H](O)[C@H]1O (single isomer, unassigned) [450 (322)]
10 to 15 | 1000 to 10000 | 100 to 1000 | Nc1ncnc2c1ncn2[C@@H]1O[C@H](C(=O)NCCCNCCc2cccc(Oc3ccccc3)c2)[C@@H](O)[C@H]1O [299 (196), (2S,3S,4R,5R)-5-(6-amino-9H-purin-9-yl)-3,4-dihydroxy-N-(3-((3-phenoxyphenethyl)amino)propyl) tetrahydrofuran-2-carboxamide]
≤ 10 | > 10000 | > 1000 | CNc1ncnc2c1ccn2[C@@H]1C[C@H](CN2CCCC23CCNCC3)[C@@H](O)[C@H]1O [451 (323), (1S,2R,3R,5R)-3-((1,8-Diazaspiro[4.5]decan-1-yl)methyl)-5-(4-(methylamino)-7H-pyrrolo[2,3-d]pyrimidin-7-yl) cyclopentane-1,2-diol]
≤ 10 | > 10000 | > 1000 | CNc1ncnc2c1ccn2[C@@H]1C[C@H](CNCC2CNCCO2)[C@@H](O)[C@H]1O (mixture of isomers) [435 (307), (1R,2S,3R,5R)-3-(4-(methylamino)-7H-pyrrolo[2,3-d]pyrimidin-7-yl)-5-(((morpholin-2-ylmethyl)amino)methyl) cyclopentane-1,2-diol and (1R,2S,3R,5S)-3-(4-(methylamino)-7H-pyrrolo[2,3-d]pyrimidin-7-yl)-5-(((morpholin-2-ylmethyl)amino)methyl) cyclopentane-1,2-diol]
15 to 20 | > 10000 | 10 to 100 | Nc1ncnc2c1c(Br)cn2[C@@H]1C[C@H](CNCCCNCCc2ccccc2)[C@@H](O)[C@H]1O [463 (337), (1R,2S,3R,5R)-3-(4-Amino-5-bromo-7H-pyrrolo[2,3-d]pyrimidin-7-yl)-5-(((3-(phenethylamino)propyl)amino)methyl) cyclopentane-1,2-diol]
15 to 20 | 100 to 1000 | 10 to 100 | Nc1ncnc2c1c(Br)cn2[C@@H]1C[C@H](CNCCCNCCc2cccc(Oc3ccccc3)c2)[C@@H](O)[C@H]1O [457 (329)]
≤ 10 | > 10000 | > 1000 | CNc1ncnc2c1ccn2[C@@H]1C[C@H](CN2CCCCC23CCNC3)[C@@H](O)[C@H]1O (stereo partly drawn) [448 (320), (1S,2R,3R,5R)-3-{2,6-diazaspiro[4.5]decan-6-ylmethyl}-5-[4-(methylamino)pyrrolo[2,3-d]pyrimidin-7-yl]cyclopentane-1,2-diol]
≤ 10 | > 10000 | 100 to 1000 | CNc1ncnc2c1ccn2[C@@H]1C[C@H](CN(CCCNCCc2ccccc2)CC(F)(F)F)[C@@H](O)[C@H]1O [330 (234), (1R,2S,3R,5R)-3-(4-(methylamino)-7H-pyrrolo[2,3-d]pyrimidin-7-yl)-5-(((3-(phenethylamino)propyl)(2,2,2-trifluoroethyl)amino)methyl) cyclopentane-1,2-diol]
10 to 15 | > 10000 | 100 to 1000 | Nc1ncnc2c1c(Br)cn2[C@@H]1C[C@H](C(=O)NC[C@H]2CCCNC2)[C@@H](O)[C@H]1O [453 (325), (1S,2R,3S,4R)-4-(4-Amino-5-bromo-7H-pyrrolo[2,3-d]pyrimidin-7-yl)-2,3-dihydroxy-N-(((S)-piperidin-3-yl)methyl) cyclopentane-1-carboxamide]
10 to 15 | > 10000 | > 1000 | CNc1ncnc2c1ccn2[C@@H]1C[C@H](CNCCCNCCc2ccc3ccccc3c2)[C@@H](O)[C@H]1O [368 (272), (1R,2S,3R,5R)-3-(4-(methylamino)-7H-pyrrolo[2,3-a]pyrimidin-7-yl)-5-(((3-((2-(naphthalen-2-yl)ethyl)amino)propyl)amino)methyl) cyclopentane-1,2-diol]
